According to patent US4742061A, “Benzoc[c]-1,5-naphthyridines and related compounds as memory enhancing agents” (priority 1986, dated 1988):

Test system: mice
Experiment: Dark Avoidance Assay (block of scopolamine-induced memory impairment in mice, 24 hours)
Type: in vivo
Experimental: In this assay mice are tested for their ability to remember an unpleasant stimulus for a period of 24 hours. A mouse is placed in a chamber than contains a dark compartment; a strong incandescent light drives it to the dark compartment, where an electric shock is administered through metal plates on the floor. The animal is removed from the testing apparatus and tested again, 24 hours later, for the ability to remember the electric shock.
If scopolamine, an anticholinergic agent that is known to cause memory impairment, is administered before an animal's initial exposure to the test chamber, the animal re-enters the dark compartment shortly after being placed in the test chamber 24 hours later. This effect of scopolamine is blocked by an active test compound, resulting in greater interval before re-entry into the dark compartment.
The results for an active compound are expressed as the percent of a group of animals in which the effect of scopolamine is blocked, as manifested by an increased interval between being placed in the test chamber and re-entering the dark compartment.

Q: `Nc1c2c(nc3ccccc13)CCCC2` [Tacrine, 9-amino-1,2,3,4-tetrahydro-acridine] was tested. Which “% of Animals Greater than Scopolamine” value (dose 0.63 mg/kg of body weight) did it give?
A: The value was 13%.

Q: `c1ccc2c3c(ncc2c1)CCCN3` [1,2,3,4-Tetrahydrobenzo[c]-1,5-naphthyridine] was tested. Which “% of Animals Greater than Scopolamine” value (dose 1.25 mg/kg of body weight) did it give?
A: Its value is 27%.

Q: And the “% of Animals Greater than Scopolamine” value (dose 2.5 mg/kg of body weight)?
A: Its value is 25%.

Q: With `CC[C@@H]1C(=O)OC[C@@H]1Cc1cncn1C` [Pilocarpine] as the molecule, how does the “% of Animals Greater than Scopolamine” value (dose 5.0 mg/kg of body weight) read?
A: Its value is 13%.
